3 molecules from patent US8450266B2 (Ipsen Pharma S.A.S., priority 2008, dated 2013) can be followed below.

Data set [1] can be described thus: Human plasma half-life assay (LC-MS). The format is in vitro ADME. Conditions: incubated at 37° C., read-out: Human Plasma T½ (converted). The procedure, abridged: (§1)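 Aliquots taken from human or rat plasma at time points up to 72 h, quenched with formic acid and acetonitrile, centrifuged. Supernatant analyzed by LC-MS (ESI, positive ion, full scan) on a C8 column with a water/acetonitrile 1% formic acid gradient.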

Data set [2] can be described thus: Rat plasma half-life assay (LC-MS). The class given is in vitro ADME. The conditions noted are these: incubated at 37° C., read-out: Rat Plasma T½ (converted). The procedure, abridged:
as §1

Data set [3] concerns the target T1, human recombinant GIP receptor (Homo sapiens, UniProt P48546).
T1 construct: expressed in transfected cells; host or cells: CHO-K1 clonal cells (membranes)
T1 sequence (P48546 22-466): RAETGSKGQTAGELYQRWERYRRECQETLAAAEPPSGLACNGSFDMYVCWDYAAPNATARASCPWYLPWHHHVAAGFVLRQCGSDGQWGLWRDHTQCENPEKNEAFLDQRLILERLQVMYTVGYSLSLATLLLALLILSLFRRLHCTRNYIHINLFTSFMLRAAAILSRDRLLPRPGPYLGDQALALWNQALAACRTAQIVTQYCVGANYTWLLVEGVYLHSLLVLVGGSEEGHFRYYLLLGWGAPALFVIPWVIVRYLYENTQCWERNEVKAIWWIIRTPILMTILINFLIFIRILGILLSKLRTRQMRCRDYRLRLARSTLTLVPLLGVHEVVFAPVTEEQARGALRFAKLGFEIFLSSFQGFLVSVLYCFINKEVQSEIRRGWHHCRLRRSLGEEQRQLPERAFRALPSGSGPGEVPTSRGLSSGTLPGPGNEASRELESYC
Nature of the data set: In vitro hGIP receptor binding assay ([125I]GIP displacement, CHO-K1 membranes). From the text:
A. In Vitro hGIP Receptor Binding Assay

Molecules are shown by their SMILES. Where a SMILES comes first, the peptide text is derived from it. [ ]: non-standard residue; d: D form. The star is where a group is joined. Myristoyl = CCCCCCCCCCCCCC(=O)*; Decanoyl = CCCCCCCCCC(=O)*; Ac6c = NC1(C(=O)O)CCCCC1; Orn = NCCC[C@H](N)C(=O)O

The Ki is the dissociation constant of the complex between target and ligand, obtained from inhibition or displacement. For the molecule `CCCCCCCCCC(=O)NCCC[C@H](NC(=O)[C@H](CCCCN)NC(=O)[C@H](CCCCN)NC(=O)CNC(=O)[C@H](CCCCN)NC(=O)[C@H](CCC(N)=O)NC(=O)[C@H](C)NC(=O)[C@H](CC(C)C)NC(=O)[C@H](CC(C)C)NC(=O)[C@H](Cc1c[nH]c2ccccc12)NC(=O)[C@H](CC(N)=O)NC(=O)[C@@H](NC(=O)[C@H](Cc1ccccc1)NC(=O)[C@H](CC(=O)O)NC(=O)[C@H](CCC(N)=O)NC(=O)[C@H](CCC(N)=O)NC(=O)[C@H](Cc1c[nH]cn1)NC(=O)[C@@H](NC(=O)[C@H](CCCCN)NC(=O)[C@H](CC(=O)O)NC(=O)[C@H](CCSC)NC(=O)[C@H](C)NC(=O)[C@@H](NC(=O)[C@H](CO)NC(=O)[C@H](Cc1ccc(O)cc1)NC(=O)[C@H](CC(=O)O)NC(=O)[C@H](CO)NC(=O)C1(NC(=O)CCCCCCCCC)CCCCC1)[C@@H](C)CC)[C@@H](C)CC)C(C)C)C(=O)N[C@@H](CC(=O)O)C(=O)N[C@@H](Cc1c[nH]c2ccccc12)C(=O)N[C@@H](CCCCN)C(=O)N[C@@H](Cc1c[nH]cn1)C(=O)N[C@@H](CC(N)=O)C(=O)N[C@H](C(=O)N[C@H](C(=O)N[C@@H](CCC(N)=O)C(=O)O)[C@@H](C)O)[C@@H](C)CC` [Example 21, [CH3-(CH2)8-C(O)-A6c^7, Orn^34(N-C(O)-(CH2)8-CH3)]hGIP(7-42)-OH] (Decanoyl-[Ac6c]SDYSIAMDKIHQQDFVNWLLAQKGKK[Orn](Decanoyl)DWKHNITQ-OH), the figures for the half-life at 0.1 mg/mL in data set [1] and in data set [2] were 8 h and above 72 h, respectively. The Ki in data set [3] was found to be 0.163 µM.
As for `CCCCCCCCCCCCCC(=O)NCCC[C@H](NC(=O)[C@H](CCCCN)NC(=O)[C@H](CCC(N)=O)NC(=O)[C@H](C)NC(=O)[C@H](CC(C)C)NC(=O)[C@H](CC(C)C)NC(=O)[C@H](Cc1c[nH]c2ccccc12)NC(=O)[C@H](CC(N)=O)NC(=O)[C@@H](NC(=O)[C@H](Cc1ccccc1)NC(=O)[C@H](CC(=O)O)NC(=O)[C@H](CCC(N)=O)NC(=O)[C@H](CCC(N)=O)NC(=O)[C@H](Cc1c[nH]cn1)NC(=O)[C@@H](NC(=O)[C@H](CCCCN)NC(=O)[C@H](CC(=O)O)NC(=O)[C@H](CCSC)NC(=O)[C@H](C)NC(=O)[C@@H](NC(=O)[C@H](CO)NC(=O)[C@H](Cc1ccc(O)cc1)NC(=O)[C@H](CC(=O)O)NC(=O)[C@H](CO)NC(=O)C1(NC(C)=O)CCCCC1)[C@@H](C)CC)[C@@H](C)CC)C(C)C)C(=O)N[C@@H](CCCCN)C(=O)N[C@@H](CCCCN)C(=O)N[C@@H](CC(N)=O)C(=O)N[C@@H](CC(=O)O)C(=O)N[C@@H](Cc1c[nH]c2ccccc12)C(=O)N[C@@H](CCCCN)C(=O)N[C@@H](Cc1c[nH]cn1)C(=O)N[C@@H](CC(N)=O)C(=O)N[C@H](C(=O)N[C@H](C(=O)N[C@@H](CCC(N)=O)C(=O)O)[C@@H](C)O)[C@@H](C)CC` [Example 12, [Ac-A6c^7, Orn^31(N-C(O)-(CH2)12-CH3)]hGIP(7-42)-OH] (Ac-[Ac6c]SDYSIAMDKIHQQDFVNWLLAQK[Orn](Myristoyl)KKNDWKHNITQ-OH), the values for the half-life at 0.1 mg/mL in data set [1] and in data set [2] were 7.3 h and above 72 h, respectively.
Consider `CCCC[C@H](NC(=O)[C@H](C)NC(=O)[C@@H](NC(=O)C(C)(C)NC(=O)[C@H](Cc1ccc(O)cc1)NC(=O)[C@H](CC(=O)O)NC(=O)[C@H](CO)NC(=O)[C@@H](NC(=O)[C@@H](N)Cc1ccccc1)[C@@H](C)CC)[C@@H](C)CC)C(=O)N[C@@H](CC(=O)O)C(=O)N[C@@H](CCCCN)C(=O)N[C@H](C(=O)N[C@@H](Cc1c[nH]cn1)C(=O)N[C@@H](CCC(N)=O)C(=O)N[C@@H](CCC(N)=O)C(=O)N[C@@H](CC(=O)O)C(=O)N[C@@H](Cc1ccccc1)C(=O)N[C@H](C(=O)N[C@@H](CC(N)=O)C(=O)N[C@@H](Cc1c[nH]c2ccccc12)C(=O)N[C@@H](CC(C)C)C(=O)N[C@@H](CC(C)C)C(=O)N[C@@H](C)C(=O)N[C@@H](CCC(N)=O)C(=O)N[C@@H](CCCCN)C(N)=O)C(C)C)[C@@H](C)CC` [Example 37, (Aib^11, Nle^14)hGIP(6-30)-NH2] (HELM PEPTIDE1{F.I.S.D.Y.[Aib].I.A.[Nle].D.K.I.H.Q.Q.D.F.V.N.W.L.L.A.Q.K.[am]}$$$$V2.0), for which the half-life at 0.1 mg/mL was 13.5 h in data set [1] and 28.5 h in data set [2].
